“And” between values parts separate entries of the source, which are not always exact repeats. Equal entries are not always repeated. Inconclusive results and toxic doses are left out.
Test system: P388 leukemia ip, CD2F1 mice, survival T/C
Test: NCI In Vivo Anticancer Drug Screen. Data for tumor model P388 Leukemia (intraperitoneal) in CD2F1 (CDF1) mice
Details: endpoint: median survival time, higher = longer survival
Outline: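 Mice carrying the transplanted tumor received test compound or vehicle. Survival was recorded in each group, and the value is the treated-group measurement divided by that of the vehicle-treated control group.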

[1] = dose: 50.0 mg/kg/injection, schedule: Q01DX005 (ip), vehicle: saline with Tween-80
[2] = dose: 100.0 mg/kg/injection, schedule: Q01DX005 (ip), vehicle: saline with Tween-80
[3] = dose: 200.0 mg/kg/injection, schedule: Q01DX005 (ip), vehicle: saline with Tween-80
[4] = dose: 50.0 mg/kg/injection, schedule: Q01DX009 (ip), vehicle: saline
[5] = dose: 100.0 mg/kg/injection, schedule: Q01DX009 (ip), vehicle: saline
[6] = dose: 60.0 mg/kg/injection, schedule: Q01DX005 (ip), vehicle: saline with Tween-80
[7] = dose: 120.0 mg/kg/injection, schedule: Q01DX005 (ip), vehicle: saline with Tween-80
[8] = dose: 240.0 mg/kg/injection, schedule: Q01DX005 (ip), vehicle: saline with Tween-80
[9] = dose: 50.0 mg/kg/injection, schedule: Q01DX005 (ip), vehicle: Klucel (hydroxypropylcellulose) (HPC)
[10] = dose: 100.0 mg/kg/injection, schedule: Q01DX005 (ip), vehicle: Klucel (hydroxypropylcellulose) (HPC)

## COc1ccc(Cc2cc3c(cc2OCC(=O)O)OCO3)cc1
[1]
  T/C: 97 % of control
[2]
  T/C: 100 % of control
[3]
  T/C: 93 % of control

## CC(C)(C)C(=O)CP(=O)(O)O
[4]
  T/C: 95 % of control and 100 % of control
[5]
  T/C: 104 % of control and 97 % of control
dose: 200.0 mg/kg/injection, schedule: Q01DX009 (ip), vehicle: saline
  T/C: 95 % of control and 101 % of control

## COc1ccc(C(C)c2cc3c(cc2OCCO)OCO3)cc1OC (configuration not stated)
dose: 50.0 mg/kg/injection, schedule: Q01DX005 (ip), vehicle: distilled water + Tween-80
  T/C: 97 % of control
dose: 100.0 mg/kg/injection, schedule: Q01DX005 (ip), vehicle: distilled water + Tween-80
  T/C: 93 % of control
dose: 200.0 mg/kg/injection, schedule: Q01DX005 (ip), vehicle: distilled water + Tween-80
  T/C: 97 % of control

## Nc1nnn(N)n1
dose: 100.0 mg/kg/injection, schedule: Q04DX003 (ip), vehicle: saline
  T/C: 92 % of control
dose: 200.0 mg/kg/injection, schedule: Q04DX003 (ip), vehicle: saline
  T/C: 100 % of control

## COc1cc2c(cc1OC)CC[N+](CCC[N+](C)(C)C)=C2
dose: 12.5 mg/kg/injection, schedule: Q01DX009 (ip), vehicle: saline
  T/C: 104 % of control
dose: 25.0 mg/kg/injection, schedule: Q01DX009 (ip), vehicle: saline
  T/C: 95 % of control
[4]
  T/C: 97 % of control
[5]
  T/C: 89 % of control

## C[C@@H]1C[C@](O)([C@@H](C)Cl)C(=O)O[C@@H]2CCN3CC=C(COC(=O)[C@]1(C)O)[C@H]23
dose: 2.75 mg/kg/injection, schedule: Q01DX009 (ip), vehicle: saline
  T/C: 104 % of control
dose: 3.75 mg/kg/injection, schedule: Q01DX009 (ip), vehicle: saline
  T/C: 103 % of control
dose: 5.5 mg/kg/injection, schedule: Q01DX009 (ip), vehicle: saline
  T/C: 104 % of control
dose: 7.5 mg/kg/injection, schedule: Q01DX009 (ip), vehicle: saline
  T/C: 106 % of control
dose: 11.0 mg/kg/injection, schedule: Q01DX009 (ip), vehicle: saline
  T/C: 113 % of control
dose: 15.0 mg/kg/injection, schedule: Q01DX009 (ip), vehicle: saline
  T/C: 95 % of control
dose: 22.0 mg/kg/injection, schedule: Q01DX009 (ip), vehicle: saline
  T/C: 104 % of control
dose: 30.0 mg/kg/injection, schedule: Q01DX009 (ip), vehicle: saline
  T/C: 106 % of control

## CCCCC[C@@H]1CC=CC(NC(=O)OCc2ccccc2)C1C=O (some centres not stated)
[6]
  T/C: 100 % of control
[7]
  T/C: 103 % of control
[8]
  T/C: 105 % of control

## CN1CCN(CCCN2c3ccccc3Sc3ccc(C(F)(F)F)cc32)CC1
dose: 25.0 mg/kg/injection, schedule: Q01DX009 (ip), vehicle: saline with Tween-80
  T/C: 109 % of control
dose: 50.0 mg/kg/injection, schedule: Q01DX009 (ip), vehicle: saline with Tween-80
  T/C: 118 % of control
dose: 66.0 mg/kg/injection, schedule: Q04DX003 (ip), vehicle: saline with Tween-80
  T/C: 163 % of control
dose: 100.0 mg/kg/injection, schedule: Q04DX003 (ip), vehicle: saline with Tween-80
  T/C: 150 % of control

## O=C1C2Nc3ccccc3N=C2OC1c1ccccc1 (configuration not stated)
[9]
  T/C: 96 % of control
[10]
  T/C: 96 % of control
dose: 200.0 mg/kg/injection, schedule: Q01DX005 (ip), vehicle: Klucel (hydroxypropylcellulose) (HPC)
  T/C: 100 % of control

## [CH3][Sn]([CH3])([Cl])[S]CCN
dose: 0.78 mg/kg/injection, schedule: Q01DX009 (ip), vehicle: saline
  T/C: 99 % of control
dose: 1.56 mg/kg/injection, schedule: Q01DX009 (ip), vehicle: saline
  T/C: 105 % of control
dose: 3.12 mg/kg/injection, schedule: Q01DX009 (ip), vehicle: saline
  T/C: 123 % of control
dose: 6.25 mg/kg/injection, schedule: Q01DX009 (ip), vehicle: saline
  T/C: 120 % of control

## C=C(C)c1nc(N)nc(NCCCC)n1
dose: 100.0 mg/kg/injection, schedule: Q04DX003 (ip), vehicle: Klucel (hydroxypropylcellulose) (HPC)
  T/C: 104 % of control
dose: 200.0 mg/kg/injection, schedule: Q04DX003 (ip), vehicle: Klucel (hydroxypropylcellulose) (HPC)
  T/C: 100 % of control
dose: 400.0 mg/kg/injection, schedule: Q04DX003 (ip), vehicle: Klucel (hydroxypropylcellulose) (HPC)
  T/C: 96 % of control

## c1ccc2c(c1)ccc1cccnc12
[1]
  T/C: 93 % of control
[2]
  T/C: 93 % of control
[3]
  T/C: 102 % of control

## C[CH2][Sn]([CH2]C)[CH2]C.C[CH2][Sn]([CH2]C)[CH2]C
dose: 12.5 mg/kg/injection, schedule: Q01DX005 (ip), vehicle: Klucel (hydroxypropylcellulose) (HPC)
  T/C: 105 % of control and 97 % of control
dose: 25.0 mg/kg/injection, schedule: Q01DX005 (ip), vehicle: Klucel (hydroxypropylcellulose) (HPC)
  T/C: 101 % of control and 114 % of control
[9]
  T/C: 110 % of control and 97 % of control
[10]
  T/C: 113 % of control

## Clc1ccc(NC2=NCCS2)cc1Cl
dose: 50.0 mg/kg/injection, schedule: Q01DX009 (ip), vehicle: Klucel (hydroxypropylcellulose) (HPC)
  T/C: 103 % of control
dose: 100.0 mg/kg/injection, schedule: Q01DX009 (ip), vehicle: Klucel (hydroxypropylcellulose) (HPC)
  T/C: 92 % of control
dose: 200.0 mg/kg/injection, schedule: Q01DX009 (ip), vehicle: Klucel (hydroxypropylcellulose) (HPC)
  T/C: 101 % of control

## C/C(=N\NC(=S)N1CCCCCC1)c1nccs1
dose: 12.5 mg/kg/injection, schedule: Q01DX005 (ip), vehicle: saline with Tween-80
  T/C: 98 % of control
dose: 25.0 mg/kg/injection, schedule: Q01DX005 (ip), vehicle: saline with Tween-80
  T/C: 100 % of control
[1]
  T/C: 102 % of control

## CN=C(N)NN=C1c2ccccc2-c2ccccc21
dose: 25.0 mg/kg/injection, schedule: Q04DX002 (ip), vehicle: saline with Tween-80
  T/C: 97 % of control
dose: 50.0 mg/kg/injection, schedule: Q04DX002 (ip), vehicle: saline with Tween-80
  T/C: 101 % of control

## CC(C)(C)C1CO1 (configuration not stated)
dose: 50.0 mg/kg/injection, schedule: Q01DX005 (ip), vehicle: saline
  T/C: 103 % of control
dose: 100.0 mg/kg/injection, schedule: Q01DX005 (ip), vehicle: saline
  T/C: 108 % of control
dose: 200.0 mg/kg/injection, schedule: Q01DX005 (ip), vehicle: saline
  T/C: 110 % of control

## CC1CN1C1=C(F)C(=O)C(N2CC2C)=C(F)C1=O (configuration not stated)
dose: 1.56 mg/kg/injection, schedule: Q01DX009 (ip), vehicle: Klucel (hydroxypropylcellulose) (HPC)
  T/C: 104 % of control
dose: 3.12 mg/kg/injection, schedule: Q01DX009 (ip), vehicle: Klucel (hydroxypropylcellulose) (HPC)
  T/C: 106 % of control and 110 % of control and 116 % of control
dose: 6.25 mg/kg/injection, schedule: Q01DX009 (ip), vehicle: Klucel (hydroxypropylcellulose) (HPC)
  T/C: 105 % of control and 123 % of control

## c1ccc2c(c1)CCc1cc(CN3CCOCC3)ccc1N2
dose: 60.0 mg/kg/injection, schedule: Q01DX005 (ip), vehicle: Klucel (hydroxypropylcellulose) (HPC)
  T/C: 111 % of control
dose: 120.0 mg/kg/injection, schedule: Q01DX005 (ip), vehicle: Klucel (hydroxypropylcellulose) (HPC)
  T/C: 108 % of control
dose: 240.0 mg/kg/injection, schedule: Q01DX005 (ip), vehicle: Klucel (hydroxypropylcellulose) (HPC)
  T/C: 105 % of control

## Clc1cccc(Cl)c1C(Nc1nc2ccccc2s1)Nc1nc2ccccc2s1
dose: 50.0 mg/kg/injection, schedule: Q01DX005 (ip), vehicle: Klucel + Tween-80
  T/C: 110 % of control
dose: 100.0 mg/kg/injection, schedule: Q01DX005 (ip), vehicle: Klucel + Tween-80
  T/C: 106 % of control
dose: 200.0 mg/kg/injection, schedule: Q01DX005 (ip), vehicle: Klucel + Tween-80
  T/C: 109 % of control

## c1cc2cc3c(cc2o1)OC[C@H]1c2cc4c(cc2O[C@@H]31)OCO4
dose: 100.0 mg/kg/injection, schedule: Q01DX001 (ip), vehicle: Klucel (hydroxypropylcellulose) (HPC)
  T/C: 91 % of control
dose: 200.0 mg/kg/injection, schedule: Q01DX001 (ip), vehicle: Klucel (hydroxypropylcellulose) (HPC)
  T/C: 87 % of control

## O=C1C=C(C/C=C/c2ccccc2)C(C/C=C/c2ccccc2)C=C1O (configuration not stated)
dose: 0.32 mg/kg/injection, schedule: Q01DX009 (ip), vehicle: saline with Tween-80
  T/C: 102 % of control
dose: 0.63 mg/kg/injection, schedule: Q01DX009 (ip), vehicle: saline with Tween-80
  T/C: 107 % of control
dose: 1.25 mg/kg/injection, schedule: Q01DX009 (ip), vehicle: saline with Tween-80
  T/C: 103 % of control
dose: 2.5 mg/kg/injection, schedule: Q01DX009 (ip), vehicle: saline with Tween-80
  T/C: 102 % of control and 93 % of control
dose: 10.0 mg/kg/injection, schedule: Q01DX009 (ip), vehicle: saline with Tween-80
  T/C: 94 % of control

## CC(=O)CCC1C(=O)N(C)C(=O)c2ccccc21 (configuration not stated)
[6]
  T/C: 98 % of control
[7]
  T/C: 99 % of control
[8]
  T/C: 91 % of control

— PubChem BioAssay AID330 (DTP/NCI, 2004)
